Structures are written as SMILES.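 Step 1: Grow cells in 96-well plates. Step 2: Expose to compound for 48 hours at 5 concentrations. Step 3: Interpolate endpoints linearly; if unreached, use highest concentration. GI50 is the concentration that inhibits growth by half.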 Active and inactive are the calls of the source. Rule as the data show it: active = GI50 up to about 1.1 µM and inactive = higher. Residues, ends and D or L forms follow the SMILES beside them. *: point of attachment. Boc = CC(C)(C)OC(=O)*

Some test systems named below: A498; A549; CAKI-1; CCRF-CEM; HCT-15; HL-60; HT-29; MCF7; MOLT-4; Malme-3M; NCI-H226; OVCAR-8; PC-3; RPMI-8226; SN12C; T47D; U-251; UO-31; NCI-H522; SW-620.
What all share (assay): NCI-60 cell line screen, 48 h

As for `COc1ccc(C(=O)/C=C2\Nc3cccnc3N\C2=C/C(=O)c2ccc(OC)cc2)cc1`, the GI50 in the experiment with A498 was > 100 µM (inactive); with A549 it was 15.6 µM (inactive); with CAKI-1, 17.2 µM (inactive); in the experiment with CCRF-CEM it was > 100 µM (inactive); in the experiment on HCT-15 it was 32.1 µM; in the experiment on HL-60, > 100 µM (inactive). Further, the GI50 in the experiment with HT-29 is 14.5 µM (inactive); in the experiment with MCF7, 14.8 µM (inactive); with MOLT-4, 27.9 µM (inactive); in the experiment on Malme-3M, 11.7 µM (inactive); with NCI-H226 it was 4.8 µM (inactive); with OVCAR-8 it was 14.3 µM (inactive). Further, the GI50 was > 100 µM (inactive) in the experiment with PC-3; 42.2 µM (inactive) in the experiment on RPMI-8226; 12.2 µM (inactive) in the experiment with SN12C; 11.5 µM (inactive) in the experiment on T47D; 14.6 µM (inactive) with U-251; 27.4 µM (inactive) in the experiment on UO-31.

As to `NNC(=O)CC(=O)Nc1ccc(C(=O)O)cc1`, the GI50 in the experiment with A549 was > 100 µM (inactive); with CAKI-1, > 100 µM (inactive); in the experiment on CCRF-CEM, > 100 µM (inactive); with HCT-15, above 100 µM; in the experiment on HL-60, > 100 µM (inactive); with HT-29, > 100 µM (inactive). For the same molecule, the GI50 in the experiment on MCF7, in the experiment with MOLT-4, in the experiment on Malme-3M, in the experiment with NCI-H226, with NCI-H522 and in the experiment with OVCAR-8 was > 100 µM (inactive) each time. In addition, the GI50 with PC-3, in the experiment on RPMI-8226, in the experiment on SN12C, in the experiment on SW-620, in the experiment with T47D and in the experiment with U-251 was > 100 µM (inactive) in each case. Besides, the GI50 in the experiment with UO-31 is > 100 µM (inactive).

For `COC(=O)/C=C/c1cnc2c(c1)oc(=O)n2C`, the GI50 is > 100 µM (inactive) in the experiment with A498; > 100 µM (inactive) in the experiment on A549; > 100 µM (inactive) with CAKI-1; > 100 µM (inactive) with CCRF-CEM; above 100 µM in the experiment with HCT-15; > 100 µM (inactive) in the experiment on HL-60. Further, the GI50 with HT-29, with MCF7, in the experiment with MOLT-4, in the experiment with Malme-3M, in the experiment on NCI-H226 and with OVCAR-8 was > 100 µM (inactive) in each case. For the same molecule, the GI50 in the experiment with PC-3, in the experiment on RPMI-8226, in the experiment on SN12C, with SW-620, with T47D and in the experiment on U-251 was > 100 µM (inactive) in each case. Besides, in the experiment with UO-31, the GI50 is > 100 µM (inactive).

`O=C(CN1C(=O)c2ccccc2C1=O)OCC1CCCN2CCCCC12` (configuration not stated): the GI50 with A498 is > 100 µM (inactive); in the experiment with A549, > 100 µM (inactive); in the experiment with CAKI-1 it was > 100 µM (inactive); with CCRF-CEM it was > 100 µM (inactive); with HCT-15, above 100 µM; in the experiment on HL-60 it was > 100 µM (inactive). The GI50 with HT-29, in the experiment on MCF7, in the experiment with MOLT-4, with Malme-3M, with NCI-H226 and with OVCAR-8 was > 100 µM (inactive) throughout. Also, the GI50 in the experiment on PC-3, in the experiment with RPMI-8226, in the experiment on SN12C, in the experiment with SW-620, in the experiment on T47D and in the experiment on U-251 was > 100 µM (inactive) throughout. The GI50 with UO-31 was > 100 µM (inactive).

For `CC1(C)C2CCC(N)(C2)C1N` (configuration not stated), the GI50 in the experiment with A498 is > 100 µM (inactive); in the experiment with A549, > 100 µM (inactive); in the experiment on CAKI-1, > 100 µM (inactive); with CCRF-CEM it was > 100 µM (inactive); in the experiment on HCT-15, above 100 µM; with HL-60, 22.3 µM (inactive). Further, the GI50 in the experiment on MCF7, in the experiment with MOLT-4, with NCI-H226, in the experiment with OVCAR-8, in the experiment with PC-3 and in the experiment on RPMI-8226 was > 100 µM (inactive) in each case. The GI50 in the experiment on SN12C, with SW-620, in the experiment on T47D, with U-251 and in the experiment with UO-31 was > 100 µM (inactive) in each case.

With `COc1ccccc1N1C(=O)/C(=C\c2cc(OC)c(OC)c(OC)c2)S(=O)(=O)C1c1ccccc1` (configuration not stated), the GI50 with A498 is 48.2 µM (inactive); with A549, 44 µM (inactive); in the experiment with CAKI-1, 53.3 µM (inactive); with CCRF-CEM, 15.6 µM (inactive); with HCT-15, 29.5 µM; in the experiment on MCF7, 27.4 µM (inactive). Further, the GI50 is 31.8 µM (inactive) in the experiment with MOLT-4; 26.9 µM (inactive) in the experiment on Malme-3M; 44.8 µM (inactive) in the experiment on NCI-H226; 17 µM (inactive) in the experiment on NCI-H522; 37.2 µM (inactive) in the experiment with OVCAR-8; 20.5 µM (inactive) with RPMI-8226. The GI50 in the experiment on SN12C was 73.6 µM (inactive); in the experiment with SW-620, 30 µM (inactive); in the experiment on T47D, 29.6 µM (inactive); with U-251, 18.6 µM (inactive); in the experiment on UO-31, 36.5 µM (inactive).

As for `Cc1cc(O)c(C(O)c2ccccn2)cc1O` (configuration not stated), the GI50 is 81.1 µM (inactive) in the experiment on A549; 11.7 µM (inactive) in the experiment on CAKI-1; 3.21 µM (inactive) in the experiment on CCRF-CEM; 18.2 µM in the experiment on HCT-15; 11.1 µM (inactive) with HL-60; 21.4 µM (inactive) with HT-29. In addition, the GI50 with MCF7 was 18.1 µM (inactive); with MOLT-4, 13.6 µM (inactive); in the experiment on Malme-3M it was 20.7 µM (inactive); in the experiment with NCI-H226, > 10 µM (inactive); in the experiment on NCI-H522, 3.78 µM (inactive); in the experiment with OVCAR-8, 18.8 µM (inactive). The GI50 is 14.1 µM (inactive) with PC-3; 20.4 µM (inactive) with RPMI-8226; 18.7 µM (inactive) with SN12C; 21.1 µM (inactive) in the experiment with SW-620; > 10 µM (inactive) with T47D; 36.7 µM (inactive) in the experiment with U-251. Moreover, the GI50 in the experiment on UO-31 was 19.1 µM (inactive).

`c1ccc2c(c1)ccc1nc3ccccn3c12`: the GI50 in the experiment with A549 was > 100 µM (inactive); in the experiment on CCRF-CEM it was > 100 µM (inactive); with HCT-15, above 100 µM; in the experiment on HL-60, > 100 µM (inactive); in the experiment on HT-29, > 100 µM (inactive); in the experiment with MCF7, > 100 µM (inactive). The GI50 with MOLT-4, with Malme-3M, with NCI-H226, with OVCAR-8, in the experiment on PC-3 and in the experiment on RPMI-8226 was > 100 µM (inactive) in each case. The GI50 with SN12C is > 100 µM (inactive); in the experiment on SW-620 it was > 100 µM (inactive); with T47D it was > 100 µM (inactive); in the experiment on U-251, > 100 µM (inactive); in the experiment on UO-31 it was 70.6 µM (inactive).

As for `COc1cc(Nc2nc3c(N)cc(C(F)(F)F)cc3nc2-c2ccccc2)cc(OC)c1OC`, the GI50 was 49.5 µM (inactive) in the experiment on A549; 45.4 µM (inactive) with CAKI-1; > 100 µM (inactive) in the experiment with CCRF-CEM; above 94.6 µM with HCT-15; > 100 µM (inactive) in the experiment on HL-60; > 92.5 µM (inactive) in the experiment on HT-29. Moreover, the GI50 was 67.3 µM (inactive) in the experiment with MCF7; > 100 µM (inactive) in the experiment on MOLT-4; 41.1 µM (inactive) with Malme-3M; 61.1 µM (inactive) in the experiment with NCI-H226; 28.4 µM (inactive) in the experiment with NCI-H522; 24.5 µM (inactive) in the experiment with OVCAR-8. Besides, the GI50 in the experiment with PC-3 is 37.2 µM (inactive); in the experiment with RPMI-8226, > 100 µM (inactive); with SN12C it was 43 µM (inactive); in the experiment on SW-620 it was > 90.4 µM (inactive); in the experiment with T47D, 14.1 µM (inactive); with U-251, 26.1 µM (inactive). Moreover, the GI50 with UO-31 was > 100 µM (inactive).

As to `COC(=O)C(Cc1c[nH]c2ccccc12)NC(=O)C(Cc1c[nH]c2ccccc12)NC(=O)C(Cc1c[nH]c2ccccc12)NC(=O)C(Cc1c[nH]c2ccccc12)NC(=O)OC(C)(C)C` (configuration not stated) (Boc-WWWW-OMe; configuration not given here), the GI50 was 39.4 µM (inactive) in the experiment on A549; 44.3 µM (inactive) in the experiment on CAKI-1; 3.78 µM (inactive) in the experiment on CCRF-CEM; above 100 µM with HCT-15; 6.34 µM (inactive) with HL-60; 22.9 µM (inactive) in the experiment with HT-29. Further, the GI50 in the experiment on MCF7 was < 0.01 µM (active); in the experiment on MOLT-4 it was 3.85 µM (inactive); in the experiment on Malme-3M, 69.8 µM (inactive); in the experiment with NCI-H226, 45.7 µM (inactive); in the experiment on NCI-H522 it was 25.4 µM (inactive); in the experiment on OVCAR-8 it was 26.9 µM (inactive). Moreover, the GI50 was 19.5 µM (inactive) with PC-3; 3.95 µM (inactive) in the experiment on RPMI-8226; > 100 µM (inactive) in the experiment with SN12C; 6.07 µM (inactive) in the experiment with SW-620; 19.7 µM (inactive) in the experiment with T47D; 14.4 µM (inactive) in the experiment on U-251. In addition, in the experiment with UO-31, the GI50 was 89.7 µM (inactive).

Turning to `Cc1cc(NS(=O)(=O)c2ccc(NC(=O)c3cccc4c(NNc5ccc(S(N)(=O)=O)cc5)c5ccccc5nc34)cc2)no1`, the GI50 with A549 is > 100 µM (inactive); with CAKI-1 it was > 100 µM (inactive); in the experiment on CCRF-CEM it was 27.9 µM (inactive); in the experiment with HCT-15, 95.1 µM; with HL-60, 31 µM (inactive); in the experiment with HT-29, 30.9 µM (inactive). Moreover, the GI50 was 81.3 µM (inactive) in the experiment on MCF7; 31 µM (inactive) in the experiment on MOLT-4; 45.9 µM (inactive) in the experiment on Malme-3M; 34 µM (inactive) in the experiment on NCI-H226; 25 µM (inactive) in the experiment on NCI-H522; 47.9 µM (inactive) with OVCAR-8. Further, the GI50 was 33.7 µM (inactive) in the experiment with PC-3; 43.4 µM (inactive) in the experiment with RPMI-8226; 49.9 µM (inactive) in the experiment on SN12C; 37.2 µM (inactive) in the experiment on SW-620; 26 µM (inactive) with T47D; 24 µM (inactive) with U-251. In the experiment on UO-31, the GI50 is 36.1 µM (inactive).

The record behind these values is ChEMBL document CHEMBL1201862, “PubChem BioAssay data set” (2004).
